From publication PMC6988309, “Preclinical efficacy for a novel tyrosine kinase inhibitor, ArQule 531 against acute myeloid leukemia” (Journal of Hematology & Oncology, 2020)
Several values for one entry are separate records, joined by “and”; a condition that tells them apart may be missing. Equal entries are not always repeated.

Experiments:
[1] = system: MOLM-13 disseminated AML xenograft; experiment: MOLM-13 disseminated xenograft, ARQ + Ven combination study (NCG mice); assay type: in vivo; details: 50 mg/kg ARQ 531 and/or 75 mg/kg venetoclax Q.D.P.O from 4 days post-engraftment until ERC; vehicle 25 days
Method: All experiments were conducted after approval of The Ohio State University Institutional Animal Care and Use Committee. Mice were randomized and enrolled for daily oral gavage (Q.D.P.O) treatment of vehicle or 50 mg/kg ARQ 531. Mice were treated until reaching early removal criteria (ERC) defined as 20% weight loss, lethargy, hind limb paralysis, moribund, anorexia, dehydration, hunched posture, severe diarrhea, breathing difficulties, or any abnormal neurological symptoms. […]
Fig. 7 BCL2 inhibition improves ARQ 531 in vivo activity. a Kaplan–Meier survival curve in the MOLM-13 xenograft after mice were treated with vehicle (N = 9) or 50 mg/kg ARQ 531 Q.D.P.O (N = 9) or 75 mg/kg venetoclax Q.D.P.O (N = 10) or 50 mg/kg ARQ 531 and 75 mg/kg venetoclax combination Q.D.P.O (N = 10) at 4 days post engraftment until ERC. b Noninvasive serial whole body bioluminescence imaging of ventral view to monitor leukemia progression and regression post treatment. Mice were injected with 150 mg/kg Firefly D-Luciferin for evaluation of tumor burden as determined by whole body bioluminescence imaging using IVIS imager

[2] = system: primary AML patient blasts; experiment: MTS proliferation assay, primary AML blasts co-cultured with HS5-GFP stroma cells, 96 h; assay type: cell-based, human; details: HS5-GFP co-culture
Excerpt: For in vitro cytotoxicity experiments (Fig. 1b–d), repeated measures models were used to account for correlations among observations from the same experiment. The percentage of live cells was compared at each concentration with DMSO. […] Mixed effects models were used in experiments described in Additional file 1: Table S4 and Fig. 2c to account for correlations within a single patient. Outcome data were first log-transformed to stabilize variances and reduce skewness. For survival experiments (Figs. 5 and 6a), Kaplan-Meier curves were produced and group differences for Fig. 5 and assessed by the log-rank test and for Fig. 6a, p values have been adjusted for multiple comparisons using Holm’s procedure. p values from experiments with multiple endpoints were adjusted for multiple comparisons using either Holm’s procedure or Dunnett’s test (all comparisons against vehicle/DMSO).
(§1) MTS proliferation assay using a human stroma co-culture assay. […] FLT3 wild-type (WT) samples (red) and FLT3-ITD (black). Colony-Forming Unit-Granulocyte and Macrophage (CFU-GM) assay. […] Number of colonies were counted after 14 days (c)

[3] = system: phosphorylated SYK (tyrosine 525/526); experiment: Immunoblot of phospho-SYK Tyr525/526; assay type: cell-based, human; details: MOLM-13, MV4-11, and OCI-AML3, 10-min treatment
Method: (§2) Cell lines were serum starved overnight followed by a 10-min treatment. Cells were washed in ice-cold PBS then lysed in 1X Cell Lysis Buffer (CST) supplemented with proteinase and phosphatase inhibitors cocktail (Roche). Pierce BCA Protein Assay was used to quantify the protein lysates (Thermo Fisher Scientific, Waltham, MA). For Immunoblotting, 15–25 μg of protein lysate was prepared in 2X or 4X Laemmeli’s sample buffer (Bio-Rad Laboratories, Hercules, CA) and heated for 5 min at 100 °C. Samples were separated on 8% sodium dodecyl sulfate polyacrylamide gel and transferred onto nitrocellulose membrane (Bio-Rad Laboratories, Hercules, CA). The membranes were blocked for 1 h in Blocker BLOTTO Blocking Buffer (Thermo Fisher Scientific, Waltham, MA) or 5% non-fat milk followed by overnight incubation at 4 °C with primary antibody followed by HRP-conjugated secondary antibodies and visualized with chemiluminescent Pierce ECL Substrate (Thermo Fisher Scientific, Waltham, MA) on X-ray films.
Fig. 3 ARQ 531 modulates AML pro-survival kinases. Immunoblot analysis for MOLM-13, MV4-11, and OCI-AML3 AML cell lines (representative of 2-3 independent blots). […] Twenty to 25 μg of total protein lysate was loaded per lane. GAPDH, HSP90, or β-Actin were used as loading controls. a, b Modulation of phosphorylated SFK and downstream targets in FLT3-ITD cell lines MOLM-13 and MV-11, respectively. c, d Modulation of phosphorylated SYK and BTK in all three cell lines

[4] = system: Ba/F3 FLT3-ITD pMIT SYK-TEL
Method: (§3) CellTiter 96 Aqueous MTS reagent (Promega, Madison, WI) was added to cells followed by a 3-h incubation at 37 °C, 5% CO2. The absorbance was measured at 490 nm using DTX 880 plate reader and the half maximal inhibitory concentration (IC50) was calculated using GraphPad Prism 7 (GraphPad Software, La Jolla, CA) and SAS/STAT software (SAS v9.4 for Windows, SAS Institute, Inc., Cary, NC).

[5] = system: MOLM-13, MV4-11, and OCI-AML3 cell lines; experiment: Annexin/PI apoptosis assay 72 h; assay type: cell-based, human; details: increasing concentrations of ARQ 531 or 50 nM gilteritinib
Method: Cells were treated for 72 h then stained for 20 min in 1X Annexin Binding buffer (BD Biosciences, Franklin Lakes, NJ) containing Annexin V-FITC and Propidium Iodine (Leinco Technologies, Fenton, MO). Live and apoptotic cells were measured using FC 500 flow cytometer and analyzed on Kaluza software (Beckman Coulter, Pasadena, CA).

[6] = system: primary AML patient blasts; experiment: Colony-Forming Unit-Granulocyte and Macrophage (CFU-GM) assay; assay type: cell-based, human; details: 0.1 µM, colonies counted after 14 days
Method: Primary AML patient samples were treated and plated at 5000–10,000 cells in 1.1 ml methylcellulose supplemented with recombinant human stem cell factor, interleukin 3, granulocyte colony-stimulating factor, and granulocyte-macrophage colony-stimulating factor (MethoCult™, […] Technologies, Vancouver, Canada) per dish in duplicates. Colonies were counted after 14 days when using primary patient samples.
as §1

BTK phosphorylation = experiment: Immunoblot of phospho-BTK; assay type: cell-based, human
Method: as §2, with “Cells” for “Cell lines were serum starved overnight followed by a 10-min treatment. Cells”
Immunoblot analysis for MOLM-13, MV4-11, and OCI-AML3 AML cell lines (representative of 2-3 independent blots). […] Twenty to 25 μg of total protein lysate was loaded per lane.

MOLM-13 = experiment: MTS proliferation assay 72 h, MOLM-13; details: MOLM-13, 1 µM, 72 hours MTS (ibrutinib 1 hour washout)
Method: A total of 5000–30,000 cells from the lines above were treated in a 96-well plate for 72 h. CellTiter 96 Aqueous MTS reagent (Promega, Madison, WI) was added to cells followed by a 3-h incubation at 37 °C, 5% CO2. The absorbance was measured at 490 nm using DTX 880 plate reader and the half maximal inhibitory concentration (IC50) was calculated using GraphPad Prism 7 (GraphPad Software, La Jolla, CA) and SAS/STAT software (SAS v9.4 for Windows, SAS Institute, Inc., Cary, NC). For the MOLM-13 resistant and the Ba/F3-FLT3-ITD/TKD cell lines, cells were treated for 72 h and cell viability was evaluated using MTT assay (Roche Diagnostics. Mannheim. Germany) according to the manufacturer’s instructions.

Method for Ba/F3 FLT3-ITD Parental: as §3

CC1(C)CCC(CN2CCN(c3ccc(C(=O)NS(=O)(=O)c4ccc(NCC5CCOCC5)c([N+](=O)[O-])c4)c(Oc4cnc5[nH]ccc5c4)c3)CC2)=C(c2ccc(Cl)cc2)C1 [venetoclax, reference compound]
survival [1]: 24 days

CCc1nc(C(N)=O)c(Nc2ccc(N3CCC(N4CCN(C)CC4)CC3)c(OC)c2)nc1NC1CCOCC1 [Gilteritinib, reference compound]
Estimated Ratio of proliferation versus vehicle (DMSO) ([2]; 0.005 µM): 1.02
Estimated Ratio of proliferation versus vehicle (DMSO) ([2]; 0.01 µM): 1.05
Estimated Ratio of proliferation versus vehicle (DMSO) ([2]; 0.05 µM): 1.06
Estimated Ratio of proliferation versus vehicle (DMSO) ([2]; 0.1 µM): 1.02
Estimated Ratio of proliferation versus vehicle (DMSO) ([2]; 0.5 µM): 0.99
Estimated Ratio of proliferation versus vehicle (DMSO) ([2]; 1 µM): 0.87
Estimated Ratio of proliferation versus vehicle (DMSO) ([2]; 5 µM): 0.78
Estimated Ratio of proliferation versus vehicle (DMSO) ([2]; 10 µM): 0.56
Estimated Ratio of proliferation versus vehicle (DMSO) ([2]; 50 µM): 0.54
effect on phosphorylated SYK (tyrosine 525/526) [3]: down-modulated SYK phosphorylation only in the FLT3-ITD cell lines
IC50 [4]: 651 nM and 415 nM and 456 nM
apoptosis / cytotoxicity (Annexin/PI) [5]: cytotoxic in the FLT3-ITD cell lines only
Estimated ratio of colony formation vs. DMSO [6]: 0.67

CC(C)(C)c1cc(NC(=O)Nc2ccc(-c3cn4c(n3)sc3cc(OCCN5CCOCC5)ccc34)cc2)no1 [quizartinib, Quizartinib]
effect on phosphorylated SYK (tyrosine 525/526) [3]: down-modulated SYK phosphorylation only in the FLT3-ITD cell lines

C=CC(=O)N1CCC[C@@H](n2nc(-c3ccc(Oc4ccccc4)cc3)c3c(N)ncnc32)C1 [ibrutinib, reference compound]
effect on BTK phosphorylation (BTK phosphorylation): potently inhibit BTK phosphorylation
in vitro anti-proliferative activity (MOLM-13): only ARQ 531 demonstrated in vitro anti-proliferative activity

c1cn2cc(-c3ccc4cn[nH]c4c3)nc(Nc3ccc(N4CCOCC4)cc3)c2n1 [entospletinib, Entospletinib, reference compound]
in vitro anti-proliferative activity (MOLM-13): potently inhibited proliferation

CO[C@@H]1[C@H](N(C)C(=O)c2ccccc2)C[C@H]2O[C@]1(C)n1c3ccccc3c3c4c(c5c6ccccc6n2c5c31)C(=O)NC4 [Midostaurin, reference compound]
IC50 (Ba/F3 FLT3-ITD Parental): 95.4 nM and 63.3 nM
effect on phosphorylated SYK (tyrosine 525/526) [3]: down-modulated SYK phosphorylation only in the FLT3-ITD cell lines
